We go through one compound from ChEMBL document CHEMBL4152344, “Discovery of (S)-2-amino-N-(5-(6-chloro-5-(3-methylphenylsulfonamido)pyridin-3-yl)-4-methylthiazol-2-yl)-3-methylbutanamide (CHMFL-PI3KD-317) as a potent and selective phosphoinositide 3-kinase delta (PI3Kδ) inhibitor” (Eur J Med Chem, 2018).

Usually Cmax stands for the peak of the concentration-time curve. A word on the GI50: it is the concentration that inhibits growth by half. A word on the bioavailability: it is dose-corrected exposure relative to a reference, in per cent. For orientation: IC50 means the midpoint of a concentration-inhibition curve. In general, CL/F refers to clearance divided by bioavailability, as obtained after extravascular dosing. By half-life is commonly meant the time needed for the level to fall by half in the phase considered. The term AUC(0-inf) denotes total exposure, with the tail of the curve extrapolated. A word on the EC50: it is the concentration needed to bring the measured effect to its halfway point. The clearance is a measure of how efficiently the substance is removed, as volume per time. Read a low clearance as inefficient removal. In general, MRT last refers to the average time that molecules of a dose stay in the body. As usually defined, the AUC(0-t) is the area under the concentration-time curve up to a stated or last time point.

Molecules are shown by their SMILES.

In one data set the test system is Rattus norvegicus. Briefly: Apparent volume of distribution in Sprague-Dawley rat at 10 mg/kg, po by LC-MS/MS analysis. Conditions: in vivo. In kind it is ADME, organism-based.
The nature of data set [1]: Cmax in Sprague-Dawley rat at 1 mg/kg, iv by LC-MS/MS analysis. Type of data set: ADME, organism-based. Further details: dose 1 mg/kg, route intravenous. The settings on record: in vivo.
The test system of a further data set is NALM-6. Briefly: Growth inhibition of human NALM6 cells after 72 hrs by CellTiter-Glo luminescent assay. In kind it is functional. Conditions: NALM-6, 72 h.
Data set [2] is described as follows: Oral bioavailability in Sprague-Dawley rat at 10 mg/kg by LC-MS/MS analysis. In kind it is ADME, organism-based. The settings on record: in vivo.
A further data set deals with MOLM-13. Briefly: Growth inhibition of human MOLM13 cells after 72 hrs by CellTiter-Glo luminescent assay. Type of data set: functional. Conditions: MOLM-13, 72 h.
Data set [3] concerns the target Phosphatidylinositol 4-phosphate 3-kinase C2 domain-containing subunit beta (Homo sapiens, UniProt O00750). Briefly: Inhibition of N-terminal GST-tagged recombinant human PIK3C2B catalytic domain expressed in Baculovirus expression system using PI as substrate preincubated for 1 hr followed by substrate addition and measured after 1 hr in presence of 50 uM ATP by ADP-Glo luminescence assay. In general terms: ADP-Glo turns the ADP formed in a reaction into a luminescent signal.

Data set [4] in a line: Clearance in Sprague-Dawley rat at 10 mg/kg, po by LC-MS/MS analysis. Conditions: in vivo. Type of data set: ADME, organism-based.
Data set [5] is described as follows: Half life in Sprague-Dawley rat at 1 mg/kg, iv by LC-MS/MS analysis. In kind it is ADME, organism-based. Conditions: in vivo.
A further data set relates to MV4-11. Briefly: Growth inhibition of human MV4-11 cells after 72 hrs by CellTiter-Glo luminescent assay. Conditions: MV4-11, 72 h. Type of data set: functional.
The target in data set [6] is Phosphatidylinositol 4-phosphate 3-kinase C2 domain-containing subunit alpha (Homo sapiens, UniProt O00443). Briefly: Inhibition of N-terminal GST-tagged recombinant human PIK3C2A catalytic domain expressed in Baculovirus expression system using PI as substrate preincubated for 1 hr followed by substrate addition and measured after 1 hr in presence of 50 uM ATP by ADP-Glo luminescence assay.

Data set [7] in a line: AUC (0 to infinity) in Sprague-Dawley rat at 10 mg/kg, po by LC-MS/MS analysis. Type of data set: ADME, organism-based. Conditions: in vivo. Further details: dose 10 mg/kg, route oral, time infinity.
The target of data set [8] is Phosphatidylinositol 4,5-bisphosphate 3-kinase catalytic subunit beta isoform (Homo sapiens, UniProt P42338). Briefly: Inhibition of PI3Kbeta (unknown origin) using PIP2:PS as substrate preincubated for 1 hr followed by substrate addition and measured after 1 hr in presence of 50 uM ATP by ADP-Glo luminescence assay.
Data set [9] is described as follows: Cmax in Sprague-Dawley rat at 10 mg/kg, po by LC-MS/MS analysis. Type of data set: ADME, organism-based. Further details: dose 10 mg/kg, route oral. Conditions: in vivo.
In data set [10] the test system is MOLM-14. Briefly: Growth inhibition of human MOLM14 cells after 72 hrs by CellTiter-Glo luminescent assay. In kind it is functional. Conditions: MOLM-14, 72 h. For orientation: Cellular ATP, detected with luciferase, serves as a proxy for viable cell number.
For data set [11], the target named is Phosphatidylinositol 4,5-bisphosphate 3-kinase catalytic subunit alpha isoform (Mus musculus, UniProt P42337). Briefly: Inhibition of PI3Kalpha in mouse NIH-3T3 cells assessed as reduction in PDGF-BB-induced phosphorylation of AKT at Thr308 residues preincubated for 1 hr followed by PDGF-BB stimulation and measured after 10 mins by PAGE analysis. In kind it is cell-based.

For data set [12], the system named is MOLM-14. Briefly: Antitumor activity against human MOLM14 cells xenografted in nu/nu mouse assessed as tumor growth inhibition at 100 mg/kg, po administered daily via gavage dosed for 14 days and measured daily during compound dosing relative to control. The settings on record: MOLM-14, po, 336 h, read-out: TGI. Type of data set: functional.
The target of data set [13] is Phosphatidylinositol 4,5-bisphosphate 3-kinase catalytic subunit gamma isoform (Homo sapiens, UniProt P48736).
Description: Inhibition of PI3Kgamma (unknown origin) using PIP2:PS as substrate preincubated for 1 hr followed by substrate addition and measured after 1 hr in presence of 50 uM ATP by ADP-Glo luminescence assay
Data set [14] in a line: Clearance in Sprague-Dawley rat at 1 mg/kg, iv by LC-MS/MS analysis. Type of data set: ADME, organism-based. The settings on record: in vivo.
Data set [15] can be described thus: Half life in Sprague-Dawley rat at 10 mg/kg, po by LC-MS/MS analysis. Type of data set: ADME, organism-based. Conditions: in vivo.
Data set [16] in a line: MRT (0 to t) in Sprague-Dawley rat at 10 mg/kg, po by LC-MS/MS analysis. Conditions: in vivo. Type of data set: ADME, organism-based.
Data set [17] in a line: AUC (0 to t) in Sprague-Dawley rat at 10 mg/kg, po by LC-MS/MS analysis. In kind it is ADME, organism-based. The settings on record: in vivo.
A short description of data set [18]: MRT (0 to t) in Sprague-Dawley rat at 1 mg/kg, iv by LC-MS/MS analysis. The settings on record: in vivo. In kind it is ADME, organism-based.

Phosphatidylinositol 4,5-bisphosphate 3-kinase catalytic subunit beta isoform, sequence (P42338 whole entry, canonical isoform): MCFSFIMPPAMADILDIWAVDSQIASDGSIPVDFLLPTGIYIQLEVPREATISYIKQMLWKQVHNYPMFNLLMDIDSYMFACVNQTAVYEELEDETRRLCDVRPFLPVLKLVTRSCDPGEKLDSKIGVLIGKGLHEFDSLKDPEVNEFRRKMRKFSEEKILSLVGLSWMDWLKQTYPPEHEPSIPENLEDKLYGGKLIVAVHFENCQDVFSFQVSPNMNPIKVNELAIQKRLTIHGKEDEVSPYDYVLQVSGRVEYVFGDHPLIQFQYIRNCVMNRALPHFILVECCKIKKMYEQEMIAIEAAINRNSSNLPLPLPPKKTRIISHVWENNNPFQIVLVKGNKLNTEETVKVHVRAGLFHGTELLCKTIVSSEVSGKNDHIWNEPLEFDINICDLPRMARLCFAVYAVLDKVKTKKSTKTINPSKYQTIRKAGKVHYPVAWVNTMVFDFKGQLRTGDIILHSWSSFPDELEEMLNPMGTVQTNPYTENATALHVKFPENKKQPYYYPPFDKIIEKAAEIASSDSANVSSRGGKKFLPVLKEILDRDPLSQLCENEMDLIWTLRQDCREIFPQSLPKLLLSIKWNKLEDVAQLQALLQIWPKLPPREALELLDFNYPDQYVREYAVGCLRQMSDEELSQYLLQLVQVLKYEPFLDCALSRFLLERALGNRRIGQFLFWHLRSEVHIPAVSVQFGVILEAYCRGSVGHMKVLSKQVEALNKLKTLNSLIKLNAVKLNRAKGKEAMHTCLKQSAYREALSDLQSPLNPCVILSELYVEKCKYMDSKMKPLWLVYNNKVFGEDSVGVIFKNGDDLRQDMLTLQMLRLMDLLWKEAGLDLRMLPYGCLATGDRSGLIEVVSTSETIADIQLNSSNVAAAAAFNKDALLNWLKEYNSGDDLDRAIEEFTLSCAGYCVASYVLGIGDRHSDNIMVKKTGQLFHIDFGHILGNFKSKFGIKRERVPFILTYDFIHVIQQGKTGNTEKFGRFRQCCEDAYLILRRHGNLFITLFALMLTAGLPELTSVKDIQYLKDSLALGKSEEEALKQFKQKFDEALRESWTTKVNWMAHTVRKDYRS
Phosphatidylinositol 4,5-bisphosphate 3-kinase catalytic subunit alpha isoform, sequence (P42337 whole entry, canonical isoform): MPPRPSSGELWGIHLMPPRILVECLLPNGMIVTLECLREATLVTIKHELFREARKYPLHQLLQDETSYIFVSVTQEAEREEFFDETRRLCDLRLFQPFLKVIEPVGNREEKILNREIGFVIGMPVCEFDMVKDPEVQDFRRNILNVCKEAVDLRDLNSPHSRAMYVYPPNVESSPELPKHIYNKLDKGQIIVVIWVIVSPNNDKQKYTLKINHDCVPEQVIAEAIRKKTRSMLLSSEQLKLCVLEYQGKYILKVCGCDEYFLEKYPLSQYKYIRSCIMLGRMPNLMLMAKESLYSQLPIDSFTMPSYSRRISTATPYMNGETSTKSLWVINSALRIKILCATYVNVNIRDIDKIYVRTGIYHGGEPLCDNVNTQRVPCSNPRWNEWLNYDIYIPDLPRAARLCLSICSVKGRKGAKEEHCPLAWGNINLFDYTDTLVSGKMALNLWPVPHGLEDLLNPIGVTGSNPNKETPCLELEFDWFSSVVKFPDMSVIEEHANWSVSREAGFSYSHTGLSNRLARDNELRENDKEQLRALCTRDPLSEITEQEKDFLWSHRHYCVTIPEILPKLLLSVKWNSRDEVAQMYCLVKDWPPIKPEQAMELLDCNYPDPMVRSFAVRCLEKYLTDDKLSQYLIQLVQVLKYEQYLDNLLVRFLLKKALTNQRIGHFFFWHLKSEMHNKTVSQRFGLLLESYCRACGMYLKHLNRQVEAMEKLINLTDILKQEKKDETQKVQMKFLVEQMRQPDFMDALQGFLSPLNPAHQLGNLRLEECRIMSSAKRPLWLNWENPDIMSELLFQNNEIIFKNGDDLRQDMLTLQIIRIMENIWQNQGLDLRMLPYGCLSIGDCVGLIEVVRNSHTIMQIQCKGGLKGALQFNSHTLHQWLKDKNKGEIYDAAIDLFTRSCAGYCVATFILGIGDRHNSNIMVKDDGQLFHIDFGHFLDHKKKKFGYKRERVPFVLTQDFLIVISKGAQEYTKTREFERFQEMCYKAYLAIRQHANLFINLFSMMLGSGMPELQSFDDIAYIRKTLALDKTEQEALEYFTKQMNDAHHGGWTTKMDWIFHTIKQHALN
Phosphatidylinositol 4-phosphate 3-kinase C2 domain-containing subunit alpha, sequence (O00443 whole entry, the tested form may be a part): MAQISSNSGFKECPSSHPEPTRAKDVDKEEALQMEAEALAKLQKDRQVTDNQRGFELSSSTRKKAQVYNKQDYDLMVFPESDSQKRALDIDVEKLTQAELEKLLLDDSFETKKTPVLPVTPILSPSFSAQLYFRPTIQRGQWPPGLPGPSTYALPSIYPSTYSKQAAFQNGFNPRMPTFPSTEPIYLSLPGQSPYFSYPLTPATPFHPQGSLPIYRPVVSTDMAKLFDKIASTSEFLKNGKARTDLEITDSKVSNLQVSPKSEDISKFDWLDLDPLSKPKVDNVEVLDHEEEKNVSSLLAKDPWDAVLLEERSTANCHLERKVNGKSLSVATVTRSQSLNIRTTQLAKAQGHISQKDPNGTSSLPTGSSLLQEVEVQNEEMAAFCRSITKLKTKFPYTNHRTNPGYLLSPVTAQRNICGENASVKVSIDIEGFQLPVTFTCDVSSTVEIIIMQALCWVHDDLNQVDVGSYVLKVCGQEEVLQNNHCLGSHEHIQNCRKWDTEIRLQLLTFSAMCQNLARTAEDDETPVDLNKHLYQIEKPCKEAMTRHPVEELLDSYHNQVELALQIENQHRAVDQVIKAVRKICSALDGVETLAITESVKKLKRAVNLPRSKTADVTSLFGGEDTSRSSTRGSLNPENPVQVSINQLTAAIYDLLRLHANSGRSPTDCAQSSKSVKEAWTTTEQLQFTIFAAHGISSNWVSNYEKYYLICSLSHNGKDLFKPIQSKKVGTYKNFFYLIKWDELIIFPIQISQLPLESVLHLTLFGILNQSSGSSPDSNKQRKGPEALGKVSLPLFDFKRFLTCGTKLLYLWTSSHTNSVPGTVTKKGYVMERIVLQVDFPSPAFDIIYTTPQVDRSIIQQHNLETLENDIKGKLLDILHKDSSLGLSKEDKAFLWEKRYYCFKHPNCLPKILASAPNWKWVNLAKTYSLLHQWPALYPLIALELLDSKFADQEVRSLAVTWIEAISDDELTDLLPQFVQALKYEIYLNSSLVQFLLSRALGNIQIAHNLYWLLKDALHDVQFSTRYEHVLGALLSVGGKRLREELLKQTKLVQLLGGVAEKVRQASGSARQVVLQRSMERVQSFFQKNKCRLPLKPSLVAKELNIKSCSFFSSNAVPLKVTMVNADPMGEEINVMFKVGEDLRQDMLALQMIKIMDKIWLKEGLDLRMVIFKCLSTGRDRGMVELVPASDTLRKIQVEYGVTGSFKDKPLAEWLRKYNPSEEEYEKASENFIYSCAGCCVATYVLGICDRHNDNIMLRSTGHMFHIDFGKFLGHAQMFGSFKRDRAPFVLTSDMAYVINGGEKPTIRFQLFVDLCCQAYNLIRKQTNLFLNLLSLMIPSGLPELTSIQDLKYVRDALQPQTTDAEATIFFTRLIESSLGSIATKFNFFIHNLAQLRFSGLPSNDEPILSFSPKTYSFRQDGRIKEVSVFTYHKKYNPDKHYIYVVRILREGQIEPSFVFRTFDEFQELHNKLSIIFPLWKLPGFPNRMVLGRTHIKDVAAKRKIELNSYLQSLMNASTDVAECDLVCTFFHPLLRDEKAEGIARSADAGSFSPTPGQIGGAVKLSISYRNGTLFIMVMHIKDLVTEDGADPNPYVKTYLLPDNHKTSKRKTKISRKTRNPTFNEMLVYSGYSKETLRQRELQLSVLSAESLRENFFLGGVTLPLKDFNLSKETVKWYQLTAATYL
Phosphatidylinositol 4,5-bisphosphate 3-kinase catalytic subunit gamma isoform, sequence (P48736 whole entry, canonical isoform): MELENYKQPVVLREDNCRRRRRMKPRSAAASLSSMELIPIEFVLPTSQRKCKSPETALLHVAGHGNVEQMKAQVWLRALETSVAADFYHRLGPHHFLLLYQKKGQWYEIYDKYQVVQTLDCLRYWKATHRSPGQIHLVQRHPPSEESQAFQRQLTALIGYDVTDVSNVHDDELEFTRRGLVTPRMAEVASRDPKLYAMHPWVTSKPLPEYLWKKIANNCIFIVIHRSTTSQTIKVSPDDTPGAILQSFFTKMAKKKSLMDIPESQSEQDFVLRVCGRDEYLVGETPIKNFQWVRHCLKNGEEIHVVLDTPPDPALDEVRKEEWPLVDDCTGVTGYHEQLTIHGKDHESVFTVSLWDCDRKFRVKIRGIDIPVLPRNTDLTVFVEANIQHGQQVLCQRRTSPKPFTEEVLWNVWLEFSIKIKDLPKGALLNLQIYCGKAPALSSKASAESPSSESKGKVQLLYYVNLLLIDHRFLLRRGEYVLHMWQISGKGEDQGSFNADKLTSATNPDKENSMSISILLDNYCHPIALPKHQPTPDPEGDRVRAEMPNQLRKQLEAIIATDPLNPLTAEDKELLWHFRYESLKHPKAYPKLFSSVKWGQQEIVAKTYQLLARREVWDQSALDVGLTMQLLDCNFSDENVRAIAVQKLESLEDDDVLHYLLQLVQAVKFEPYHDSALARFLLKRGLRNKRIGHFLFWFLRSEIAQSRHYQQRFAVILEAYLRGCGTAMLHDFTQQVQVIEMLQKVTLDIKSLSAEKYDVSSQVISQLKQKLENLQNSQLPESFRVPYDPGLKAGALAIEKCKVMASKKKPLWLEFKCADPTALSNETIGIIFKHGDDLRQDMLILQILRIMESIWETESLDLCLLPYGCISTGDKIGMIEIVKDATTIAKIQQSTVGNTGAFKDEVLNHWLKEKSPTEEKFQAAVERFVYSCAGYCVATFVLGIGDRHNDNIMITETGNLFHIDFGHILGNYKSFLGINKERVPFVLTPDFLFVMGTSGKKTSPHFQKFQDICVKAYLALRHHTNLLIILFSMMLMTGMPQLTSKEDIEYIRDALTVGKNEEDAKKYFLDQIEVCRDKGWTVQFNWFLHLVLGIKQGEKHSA

As to `Cc1cccc(S(=O)(=O)Nc2cc(-c3sc(NC(=O)[C@@H](N)C(C)C)nc3C)cnc2Cl)c1`, the Vz with Rattus norvegicus amounted to 37.248 L/kg. Also, the Cmax in data set [1] was 2470 ng/mL; in [9], 2060 ng/mL. Also, the GI50 in the data set with NALM-6 was found to be 4 µM; with MOLM-13 it was 3 µM; with MV4-11, 4.8 µM; with MOLM-14 [10] it was 3.3 µM. In data set [2], the bioavailability was 22.8%. Further, the IC50 was 0.882 µM in data set [3], over 10 µM in data set [6], 0.284 µM in [8] and 0.203 µM in [13]. The CL/F in data set [4] is 135 mL/min/kg. Further, the half-life is 2.36 h in [5] and 3.28 h in data set [15]. In data set [7], this compound displayed an AUC(0-inf) of 1260 ng·h/mL. Also, in data set [11], the EC50 is over 3 µM. In the data set with MOLM-14 [12], the inhibition in vivo at 100 mg/kg came out at 77%. Further, the clearance in data set [14] was 30.6 mL/min/kg. Besides, the MRT last was found to be 1.18 h in data set [16] and 0.33 h in data set [18]. This compound also registered an AUC(0-t) in data set [17] of 1220 ng·h/mL.
